From US9538745B2, “Methods for the cryopreservation of cells” (The General Hospital Corporation, priority 2006, dated 2017)
Where two headings read alike, the source gives them in different places.

Assays:
[1] = test system: primary rat hepatocytes; format: cell-based
Procedure: The cell viability of hepatocytes was determined immediately post-cryopreservation in quartz micro-capillaries (QMC) in the presence of either no CPA; 0.3 M sucrose; 1.5 M 1,2-propanediol (PROH); 1.5 M PROH and 0.3 M sucrose; or 2.0 M PROH and […]. The number of viable cells was determined in both vitrified samples as well as non-vitrified controls (i.e., no freezing). Cell viability was quantified by the exclusion of trypan blue. […] There was only ˜35% survival for cells loaded with 1.5 M PROH prior to cryopreservation. Sucrose (0.3 M) was then added to the cryopreservation solution with 1.5-2 M PROH. […] When 0.3 M sucrose was added to the cryopreservation solution, the immediate viability jumped to ˜75%.

[2] = Critical cooling rate to achieve vitrification (Vcc) from Boutron's semi-empirical theory and DSC constant K4; format: physicochemical
Excerpt: The critical cooling rate to achieve vitrification (Vcc) is a function of the concentration of cryoprotectant. It has been extensively studied in the case of 1,2-propanediol and other alcohols with relevance in cryobiology, although mainly in the range of cooling rates achievable by differential scanning calorimetry (DSC) techniques. However, it is possible to obtain estimates of the critical cooling rates at other […]. The presence of sugars in equimolar concentrations has shown to have no effect on Vcc in the case of monosaccharides and little effect in the case of sucrose for the concentration used in these studies (0.3 M)(Kuleshova et al., Cryobiology 38:199-130, 1999). The Vcc can be inferred from Boutron's semi-empirical theory of glass forming tendency (Boutron, Cryobiology 23:88-102, 1986); it is given by:
To is the initial temperature of crystallization and xg is the amount of ice formed at the critical cooling rate. Many studies in the literature consider a solution to be vitrified when xg≦10^−6 (Liu and McGrath, Proc. 2005 IEEE Eng. Med. Biol. 27th Ann. Conference, p. 7501-7504, 2005). K4 is a constant dependent of the solution and can be determined by DSC. Although there is not data for K4 in the available literature for our solution, some estimation can be done. The values of K4 for 40%, 37.5% and 35% (w/w) of aqueous solutions of 1,2 propanediol are 24.1° C./min, 54.1° C./min and 151° C./min (Ren et al., Cryobiology 31:47-56, 1994). These values of K4 give rise to Vcc values of 8.0×10^2° C./min, 1.8×10^3° C./min and 5.0×10^3° C./min, respectively. So, a tentative value of […] for 1.8 M of 1,2-propanediol is ≈10^4° C./min. […] The exponential fitting of the data is justified by the theory (Ren et al., supra).

[3] = test system: R1 murine ES cell line; test: Pluripotent properties of ES cells post vitrification (Oct-4, SSEA-1, alkaline phosphatase); format: cell-based; settings: 2 M 1,2-propanediol; ultra-fast cooling in QMC
Excerpt: (§1) For the purpose of evaluating the maintenance of embryonic stem cell pluripotency, a green fluorescent protein (GFP)-reporter cell system was used. The R1 murine ES cell line which expresses GFP under control of the Oct4 promoter was kindly provided by Andras Nagy (U. Toronto)(Nagy et al., Proc. Nat. Acad. Sci. USA 90:8424, 1993). The ES cell maintenance media consisted of Knockout DMEM+15% Knockout Serum Replacement (Invitrogen, Carlsbad, Calif.) containing 1000 U/ml LIF (Chemicon, Temecula, Calif.). Feeder layer-free ES cells were continually passaged in 0.1% gelatin-coated 75 cm^2 flasks in 5% CO2 humidified air at 37° C.
On the day of experiment, the attached cells were lightly trypsinized for 3-5 minutes and collected. The cells were pelleted at 100×g for 5 minutes and resuspended in cold stem cell media supplemented with 1.5 M 1,2-propanediol (Sigma, St Louis, Mo.) and incubated on ice for 10 minutes. The cells were then spun down at 100×g for 3-5 minutes and resuspended in 1 ml first vitrification solution for 10 minutes. The cells were then spun down at 100×g for 3-5 minutes and resuspended in the second solution at 10×10^6/ml for another 10 minutes. […]

[4] = Vitrification of CPA laden solutions: visible opacity after plunging into liquid nitrogen; format: physicochemical
Excerpt: One convenient way for determining non-vitrification is the appearance of opacity as a result of ice formation when freezing solutions in a straw. If there is no visible opacity, it is called apparent vitrification. Although opacity could be easily identified in the traditional plastic straw using the naked eye, it is very difficult to do so for the quartz micro-capillary due to its small dimension. Therefore, an experimental setup shown in FIG. 10 was designed for visualization of opacity during cooling by directing two focused lights on the capillary held against a dark background for all the devices shown in FIG. 1 except the stainless steel micro-capillary. […] This setup was used to determine the threshold (minimum) CPA concentration required to completely avoid opacity during cooling. […] Various total CPA concentrations from 12% to 30% by volume with 2% increments were studied using both the open pulled straw and the thin walled quartz micro-capillary. Since 0.2-1 M sucrose or trehalose has been used in essentially all studies for cryopreservation of mammalian oocytes by both slow freezing and vitrification, further studies were also performed using the quartz micro-capillary for solutions with 0.5 M sucrose or trehalose plus 1.5 M, 2.0 M, and 2.5 M PROH, respectively. The solutions can be loaded into the open pulled straw and quartz micro-capillaries by capillary action while it can be expelled out of the capillaries by using a micro-syringe attached with a soft PEP polymer needle tip to push from the end of the capillaries with a bigger opening.

[5] = test system: R1 murine ES cell line; test: Attachment efficiency of ES cells post vitrification; format: cell-based; settings: 0.5 M trehalose, 2 M PROH, or both; QMC plunged into liquid nitrogen; day 1; FIG. 15
Excerpt: as §1
On the day of experiment, the attached cells were lightly trypsinized for 3-5 minutes and collected. The cells were pelleted at 100×g for 5 minutes and resuspended in cold stem cell media supplemented with 1.5 M 1,2-propanediol (Sigma, St Louis, Mo.) and incubated on ice for 10 minutes. […]
Cell attachment and growth was determined by counting the number of cells per field under a 10× objective. […] The attachment efficiency was calculated as the ratio of the total number of cells per field of a cryopreserved sample to that of the control non-frozen sample at day 1. To assess the proliferation of the attached cells, the total number of cells per field was further monitored for 4 days.

[6] = Ren et al., cited from earlier work
[7] = both open pulled straw and quartz micro-capillary, FIG. 14

## CC(O)CO (centres unmarked) [1,2-propanediol]
[1]
  cell survival / immediate viability (exclusion of trypan blue): ~35%
[2]; 1.8 M
  K4, tentative value: ≈ 10^4 ° C./min
[2]; 35% (w/w) aqueous solution
  Vcc (critical cooling rate to achieve vitrification): 5.0×10^3 ° C./min
[2]; 37.5% (w/w) aqueous solution
  Vcc (critical cooling rate to achieve vitrification): 1.8×10^3 ° C./min
[2]; 40% (w/w) aqueous solution
  Vcc (critical cooling rate to achieve vitrification): 8.0×10^2 ° C./min
[3]
  pluripotent properties post-vitrification (Oct-4, SSEA-1, alkaline phosphatase staining): retained their pluripotent properties
[4]; 1 M 1,2-propanediol (in FHM)
  appearance of solution in quartz micro-capillary after plunging into liquid nitrogen: opaque
[4]; 2 M 1,2-propanediol (in FHM)
  appearance of solution in quartz micro-capillary after plunging into liquid nitrogen: clear
[4]; 7% v 1,2-propanediol in FHM media, FIG. 10
  appearance of solution in quartz micro-capillary after plunging into liquid nitrogen: whitish appearance
[4]; 14% v 1,2-propanediol in FHM media, FIG. 10
  appearance of solution in quartz micro-capillary after plunging into liquid nitrogen: clear appearance
[4]; [7]
  threshold concentration lower than that of ethylene glycol (EG): ~5 % v
  threshold concentration lower than that of the combination of EG and PROH in a 1:1 ratio: 2.5 % v
[4]; micro-capillary
  threshold concentration for the complete absence of opacity: ~2 M
[5]
  attachment efficiency (normalized to control): Only a minimum amount of cells can attach
[6]; 35% (w/w) aqueous solution
  K4: 151 ° C./min
[6]; 37.5% (w/w) aqueous solution
  K4: 54.1 ° C./min
[6]; 40% (w/w) aqueous solution
  K4: 24.1 ° C./min

## OCCO [Ethylene glycol (EG), ethylene glycol]
[4]
  threshold concentration for the complete absence of opacity: ~4 M

## OC[C@H]1O[C@@](CO)(O[C@H]2O[C@H](CO)[C@@H](O)[C@H](O)[C@H]2O)[C@@H](O)[C@@H]1O [sucrose]
[1]
  cell survival / immediate viability (exclusion of trypan blue): less than 10%

## OC[C@H]1O[C@H](O[C@H]2O[C@H](CO)[C@@H](O)[C@H](O)[C@H]2O)[C@H](O)[C@@H](O)[C@@H]1O [trehalose]
[5]
  attachment efficiency (normalized to control): Only a minimum amount of cells can attach
